Results published in patent publication US4094966A, “Iodobenzene derivatives and X-ray contrast media containing the same” (priority 1974, dated 1978).

How the values were obtained:
[1] = Osmolality determination (FISKE osmometer); type: physicochemical; settings: solutions containing 28% iodine; methylglucamine salts; extrapolation from successive dilutions
Protocol: Osmolality is determined by extrapolation of the values obtained on successive dilutions of solutions containing 28% or 38% iodine.
Osmolality readings are made with a FISKE Model 230/D/330 D osmometer. This apparatus indicates this measurement as milliosmoles per kg of solution. Its operation is based on the principles of cryoscopy. The determinations were made with solutions containing 28% iodine.

[2] = Viscosity of 28% methylglucamine salt solutions at 37° C; type: physicochemical; settings: 28% iodine methylglucamine salt solution
Protocol: Pharmaceutical grade injectable solutions are prepared in the form of the methylgucamine or sodium salt, containing 28, 38 or 48 g iodine per 100 ml (solutions said to contain 28%, 38% and 48% iodine).
It is apparent, from said results, that, contrary to expectations, the compounds of the formula (I) have relatively low solution viscosities.

[3] = test system: mice; assay: Acute toxicity determination, intravenous toxicity in mice; type: in vivo, mice (Swiss origin, IOPS mice of OFI strain); settings: 24 hours
Protocol: Intravenous toxicity determination was effected in Swiss origin, IOPS mice of OFI strain.
Each dosage level was injected to a lot of 10 mice comprising 5 male and 5 female mice.
Injections were made manually, in the caudal vein, at a rate of 2 ml/minute.
Death rate during the 24 hours after injection was recorded.

[4] = test system: femoral artery; assay: Effect on the femoral rate of flow (peripheral vasodilatation); type: in vivo, mongrels
Protocol: This test was carried out in Nembutal-anesthetized male or female 7-12 mongrels.
Nembutal was used at a dosage of 30 mg/kg, with Vetranquil pre-medication, (overall intravenous injection of 2.5 mg), respiration was spontaneous.
Rate of flow variations were recorded at the level of the right or left fermoral artery, by means of a Statham electromagnetic sensor.
The injections were made in a collateral of the fermoral artery, downstream of the sensor, by means of a catheter mounted by the retrograde route, so as not to perturb the blood flow.
The injections were made under a constant volume of 1.5 ml administered within 3-5 seconds.
The same volume of an iostonic sodium chloride solution was also injected.

[5] = Biliary clearance test in cats; type: in vivo; set-up: scale not given here
Protocol: This test was conducted in male or female adult cats weighing 3-4 kg.
The test material was injected intravenously, at a dosage of 0.10 g/kg iodine at the level of the internal saphenous vein. Clearance of the material was monitored by X-ray control.
X-ray pictures visualizing the gall bladder and the bladder were taken at the following times: 30 minutes, 1 hour, 2 hours, 3 hours, 4 hours, 5 hours, 6 hours.

[6] = test system: rats; assay: Toxicological investigation in rats on intracisternal injection (Melartin's method); type: in vivo
Text: The results of a toxicological investigation effected in rats on intracisternal injection, according to E. Melartin's method (InvestigativeRadiology 1970 5, 1, 13-21) are also set forth below.

[7] = 1.5 ml into collateral of femoral artery, 28% I, Mgl salt
[8] = i.v., 0.10 g I/kg, 28% I, Mgl salt

| Compound | Osmolality [1] [mosm/kg] | Viscosity [2] [cps] | Acute toxicity in mice, i.v. ([3]; 28% I, Mgl salt) | Peripheral vasodilatation, femoral rate of flow [4, 7] | Biliary clearance in cat, i.v. [5, 8] | other results |
| --- | --- | --- | --- | --- | --- | --- |
| CNC(=O)c1c(I)c(C(=O)NCC(=O)Nc2c(I)c(C(=O)O)c(I)c(C(=O)NCCO)c2I)c(I)c(N(C)C(C)=O)c1I [Compound 1, 2,4,6-triiodo-3-N-hydroxyethylcarbamyl-5-(2,4,6-triiodo-3-N-methylcarbamyl-5-N-methyl-N-acetylaminobenzoyl)glycylamino-benzoic acid] | 510 | 5.4 |  |  |  | Acute toxicity in mice, i.v. ([3]; 38% I, Mgl salt): 11.5 grams I/kg; Peripheral vasodilatation, femoral rate of flow ([4]; in vivo): +; Biliary clearance in cat, i.v. ([5]; in vivo, iv): ± |
| CNC(=O)c1c(I)c(NC(=O)CCCNC(=O)c2c(I)c(C(=O)NC)c(I)c(N(C)C(C)=O)c2I)c(I)c(C(=O)O)c1I [Compound 2, 2,4,6-triiodo-3-N-methylcarbamyl-5-(2,4,6-triiodo-3-N-methylcarbamyl-5-N-methylacetamido-benzoyl)-γ-aminobutyrylamino-benzoic acid] | 475 | 6.56 | 9.5 grams I/kg | + | 0 |  |
| CNC(=O)c1c(I)c(NC(C)=O)c(I)c(C(=O)NCC(=O)Nc2c(I)c(C(=O)O)c(I)c(C(=O)NCCO)c2I)c1I [Compound 3, 2,4,6-triiodo-3-N-hydroxyethylcarbamyl-5-(2,4,6-triiodo-3-N-methylcarbamyl-5-acetamidio-benzoyl)-glycylaminobenzoic acid] | 550 | 5.72 | 9-10 grams I/kg | + |  |  |
| CC(=O)Nc1c(I)c(C(=O)NCC(=O)Nc2c(I)c(C(=O)O)c(I)c(C(=O)NCCO)c2I)c(I)c(N(C)C(C)=O)c1I [Compound 6, 2,4,6-triiodo-3-N-hydroxyethylcarbamyl-5-(2,4,6-triiodo-3-acetamido-5-N-methylacetamido-benzoyl)-glycylamino-benzoic acid] | 480 | 5.2 | 10 grams I/kg | + | 0 |  |
| CNC(=O)c1c(I)c(NC(=O)CNC(=O)c2c(I)c(C(=O)NCCO)c(I)c(N(C)C(C)=O)c2I)c(I)c(C(=O)O)c1I [Compound 8, 2,4,6-triiodo-3-N-methylcarbamyl-5-(2,4,6-triiodo-3-N-hydroxyethylcarbamyl-5-N-methylacetamido-benzoyl)glycyl amino-benzoic acid] | 535 | 5.5 | 12 grams I/kg | ++ | ± |  |
| CNC(=O)c1c(I)c(NC(=O)CNC(=O)c2c(I)c(C(=O)NC)c(I)c(N(C)C(C)=O)c2I)c(I)c(C(=O)O)c1I [Compound 9, 2,4,6-triiodo-3-N-methylcarbamyl-5-(2,4,6-triiodo-3-N-methylcarbamyl-5-N-methylacetamido-benzoyl)-glycylamino-benzoic acid] | 440 | 5.8 |  |  |  | Acute toxicity in mice, i.v. ([3]; 38% I, Mgl salt): 11.5 grams I/kg; Peripheral vasodilatation, femoral rate of flow ([4]; 1.5 ml into collateral of femoral artery, 38% I, Mgl salt): +; Biliary clearance in cat, i.v. ([5]; i.v., 0.10 g I/kg, 38% I, Mgl salt): ++ |
| CNC(=O)c1c(I)c(NC(C)=O)c(I)c(C(=O)NCC(=O)N(C)c2c(I)c(C(=O)O)c(I)c(C(=O)NC)c2I)c1I [Compound 14, 2,4,6-triiodo-3-N-methylcarbamyl-5-(2,4,6-triiodo-3-N-methylcarbamyl-5-acetamido-benzoyl)-glycyl-N-methylamino-benzoic acid] | 600 | 5.2 | 12 grams I/kg | + | + |  |
| CNC(=O)c1c(I)c(C(=O)NCCCC(=O)Nc2c(I)c(C(=O)O)c(I)c(C(=O)NCCO)c2I)c(I)c(N(C)C(C)=O)c1I [Compound 24, 2,4,6-triiodo-3-N-hydroxyethylcarbamyl5-(2,4,6-triiodo-3-N-methylcarbamyl-5-N-methylacetamidobenzoyl)-ε-amino-butyrylamino-benzoic acid] | 575 | 6 | 8.5 grams I/kg | + | 0 |  |
| CNC(=O)c1c(I)c(NC(=O)CN(CC(=O)Nc2c(I)c(C(=O)NCCO)c(I)c(C(=O)NCCO)c2I)CC(=O)Nc2c(I)c(C(=O)NCCO)c(I)c(C(=O)NCCO)c2I)c(I)c(C(=O)O)c1I [Compound 31, 2,4,6-triiodo--3-N-methylcarbamyl-5-bis{[2,4,6-triiodo-3,5-bis(N-hydroxyethylcarbamyl)-phenyl]carbamylmethyl} aminoacetamido-benzoic acid] | 350 | 10.2 | 15 grams I/kg | + | 0 | Death rate ([6]; 56 mg I per rat): 1/10 |
| CC(=O)N(C)c1c(I)c(NC(=O)CN(CC(=O)Nc2c(I)c(C(=O)NCCO)c(I)c(C(=O)NCCO)c2I)CC(=O)Nc2c(I)c(C(=O)NCCO)c(I)c(C(=O)NCCO)c2I)c(I)c(C(=O)O)c1I [Compound 32, 2,4,6-triiodo-3-N-methylacetamido-5-bis{[2,4,6-triiodo-3,5-bis(N-hydroxyethylcarbamyl)-phenyl]carbamylmethyl}aminoacetamido-benzoic acid] | 270 |  | 15 grams I/kg | + | 0 | Death rate ([6]; 50 mg I per rat): 0/10 |
| CNC(=O)c1c(I)c(C(=O)O)c(I)c(N(C)C(=O)CN(CC(=O)Nc2c(I)c(C(=O)NCCO)c(I)c(C(=O)NCCO)c2I)CC(=O)Nc2c(I)c(C(=O)NCCO)c(I)c(C(=O)NCCO)c2I)c1I [Compound 33, 2,4,6-triiodo-3-N-methylcarbamyl-5-bis{[2,4,6-triiodo-3,5,-bis(N-hydroxyethylcarbamyl)-phenyl]carbamylmethyl}amino-N-methylacetamido-benzoic acid] | 370 |  |  |  |  | Acute toxicity in mice, i.v. ([3]; 38% I, Na salt): 17 grams I/kg; Death rate ([6]; 56 mg I per rat): 0/10; Peripheral vasodilatation, femoral rate of flow ([4]; 1.5 ml into collateral of femoral artery, 38% I, Na salt): ++ |
| CNC(=O)c1c(I)c(NC(C)=O)c(I)c(C(=O)O)c1I [a, 2,4,6-Triiodo-3-N-methylcarbamyl-5-acetamido-benzoic acid, reference compound] | 1410 |  | 5.4 grams I/kg | +++ |  | Biliary clearance in cat, i.v. ([5]; in vivo, iv): 0 |
| CC(=O)Nc1c(I)c(C(=O)O)c(I)c(C(=O)NCCO)c1I [b, 2,4,6-Triiodo-3-N-hydroxyethylcarbamyl-5-acetamido-benzoic acid, reference compound] | 1390 |  |  |  |  | Acute toxicity in mice, i.v. ([3]; 30% I, Mgl salt): 5.6 grams I/kg; Peripheral vasodilatation, femoral rate of flow ([4]; 1.5 ml into collateral of femoral artery, 30% I, Mgl salt): +++; Biliary clearance in cat, i.v. ([5]; i.v., 0.10 g I/kg, 30% I, Mgl salt): 0 |
| CNC(=O)c1c(I)c(NC(=O)CCCCC(=O)Nc2c(I)c(C(=O)O)c(I)c(C(=O)NC)c2I)c(I)c(C(=O)O)c1I [c, 5,5'-Adipoyldiimido-bis-(2,4,6-triiodo-N-methylisophthalamic)acid, reference compound] | 950 |  | 6.2 grams I/kg | ++ | 0 | Death rate ([6]; 17 mg I per rat): 9/10 |
